According to PMC12311865, “In Vitro Evaluation of the Potential Interactions of Zearalenone-14-sulfate and Zearalenone-14-glucuronide with Human Cytochrome P450 Enzymes, Organic Anion Transporting Polypeptides, and ATP-Binding Cassette Multidrug Transporters” (ACS Omega, 2025):
pIC50: −log10 of the molar value. Like-named read-outs stand apart in the source and are kept apart here.

Key:
CYP2C9 = biological target: T1, CYP2C9 (Homo sapiens, UniProt P11712); assay: in vitro; assay type: biochemical; conditions: diclofenac 5 μM, 120 min
T1 construct: purchased Merck
T1 sequence (P11712 whole entry): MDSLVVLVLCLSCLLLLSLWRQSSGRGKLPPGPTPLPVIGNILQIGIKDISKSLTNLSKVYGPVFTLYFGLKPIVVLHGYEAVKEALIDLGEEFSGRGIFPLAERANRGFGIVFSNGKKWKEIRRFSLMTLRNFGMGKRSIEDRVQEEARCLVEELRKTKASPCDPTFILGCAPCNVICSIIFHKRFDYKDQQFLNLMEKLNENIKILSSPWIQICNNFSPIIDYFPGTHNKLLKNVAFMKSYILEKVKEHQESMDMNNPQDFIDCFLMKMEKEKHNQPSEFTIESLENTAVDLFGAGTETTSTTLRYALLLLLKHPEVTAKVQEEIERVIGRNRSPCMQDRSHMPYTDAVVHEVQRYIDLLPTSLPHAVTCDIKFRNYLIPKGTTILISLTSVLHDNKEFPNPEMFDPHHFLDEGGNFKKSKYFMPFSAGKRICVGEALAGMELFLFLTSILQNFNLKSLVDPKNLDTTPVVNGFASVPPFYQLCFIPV
Procedure: Inhibitory actions of ZEN conjugates on CYP2C9 and CYP3A4 enzymes were examined employing CypExpress Cytochrome P450 human kits. , Briefly, incubates (200 μL) contained the substrate (5 μM; diclofenac for CYP2C9 and testosterone for CYP3A4), the CypExpress reagent (6 mg/mL of CYP2C9 kit or 15 mg/mL of CYP3A4 kit; also including the glucose-6-phosphate dehydrogenase enzyme), and the test compounds (each 20 μM) in 0.05 M potassium phosphate buffer (pH 7.5). CYP3A4 assay was supplemented with additional G6P and NADP^+ (both 400 μM). Enzyme assays were started with the addition of the enzyme. After 120 min (CYP2C9) or 180 min (CYP3A4) incubation at 700 rpm and 30 °C in a thermomixer, the reaction was stopped with 100 μL of ice-cold methanol. Then, the samples were centrifuged for 10 min at 14,000g and room temperature. The supernatants were gently removed and directly analyzed by HPLC (see Section ).
Diclofenac and 4′-hydroxydiclofenac (CYP2C9 assay) were quantified using the previously reported HPLC-UV assay, , without modification. Briefly, the isocratic elution, with 1.0 mL/min flow rate, was performed with orthophosphoric acid (6 mM) and acetonitrile (48:52 v/v %) mobile phase, applying a Security Guard (C8, 4.0 × 3.0 mm; Phenomenex, Torrance, CA) precolumn and a Mediterranea Sea8 (C8, 150 × 4.6 mm, 5 μm; Teknokroma, Barcelona, Spain) analytical column at room temperature (injected volume: 20 μL). Diclofenac and 4′-hydroxydiclofenac were detected at 275 nm.

OATP1B1 = biological target: T2, OATP1B1 (Homo sapiens, UniProt Q9Y6L6); assay: OATP1B1-mediated pyranine uptake in overexpressing A431 cells; assay type: cell-based
T2 construct: expressed in transfected cells; host or cells: A431
T2 sequence (Q9Y6L6 1-691): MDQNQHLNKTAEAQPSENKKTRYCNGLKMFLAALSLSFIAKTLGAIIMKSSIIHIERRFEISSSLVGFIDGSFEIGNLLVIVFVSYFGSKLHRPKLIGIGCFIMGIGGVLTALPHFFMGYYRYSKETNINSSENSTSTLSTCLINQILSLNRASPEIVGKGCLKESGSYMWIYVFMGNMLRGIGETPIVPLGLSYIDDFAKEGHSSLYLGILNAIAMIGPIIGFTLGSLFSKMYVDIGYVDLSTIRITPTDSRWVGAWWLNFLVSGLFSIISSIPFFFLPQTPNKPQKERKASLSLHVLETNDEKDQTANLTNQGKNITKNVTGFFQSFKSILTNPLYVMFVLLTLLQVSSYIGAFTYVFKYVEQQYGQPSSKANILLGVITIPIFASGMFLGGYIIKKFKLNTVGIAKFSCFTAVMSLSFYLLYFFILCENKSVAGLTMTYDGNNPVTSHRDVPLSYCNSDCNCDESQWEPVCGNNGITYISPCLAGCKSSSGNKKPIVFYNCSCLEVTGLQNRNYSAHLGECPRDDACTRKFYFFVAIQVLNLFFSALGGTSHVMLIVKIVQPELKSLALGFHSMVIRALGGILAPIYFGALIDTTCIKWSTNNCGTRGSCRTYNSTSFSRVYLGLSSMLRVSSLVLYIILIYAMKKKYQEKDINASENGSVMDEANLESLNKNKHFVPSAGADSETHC
Procedure: The human epidermoid carcinoma cell (A431) overexpressing OATP1A2, OATP1B1, OATP1B3, or OATP2B1 transporters and their mock control cells were generated previously as described. , Cell culture was maintained in DMEM supplemented with 10% fetal bovine serum, 2 mM L-glutamine, 100 units/mL penicillin, and 100 μg/mL streptomycin at 37 °C and 5% CO2.
The inhibitory effects of mycotoxins (Z14S and Z14GA) were examined using indirect fluorescence assays, where pyranine and SR101 were used as fluorescent substrates. , A431 cells overexpressing OATP1A2, OATP1B1/3, or OATP2B1 and their mock-transfected controls were seeded at a density of 8 × 10^4 cells/well onto 96-well plates and incubated for 18–22 h prior to transport measurements. The next day, plated cells were washed three times with 200 μL of PBS (phosphate-buffered saline, pH 7.4) and preincubated with 50 μL of transport buffer (pH 5.5; 125 mM NaCl, 4.8 mM KCl, 1.2 mM CaCl2, 1.2 mM KH2PO4, 12 mM MgSO4, 25 mM MES, and 5.6 mM glucose) with or without increasing concentrations of the mycotoxins tested (0.001–20 μM) for 5 min at 37 °C. The transport inhibition measurements were initiated by adding 50 μL of transport buffer containing the proper fluorescent substrate SR101 (0.5 μM, OATP1A2) or pyranine (10 μM for OATP1B1 or 20 μM for OATP1B3 and OATP2B1). After 10 min (OATP1A2), 15 min (OATP1B1 and OATP2B1), or 30 min (OATP1B3) incubation, the transport was terminated by washing the cells three times with ice-cold PBS. Regarding the individual OATP assays, we applied different incubation times to keep the substrate uptake in the linear range, , avoiding substrate depletion or saturation effects, as it is indispensable for the accurate assessment. Using an Enspire plate reader (PerkinElmer, Waltham, MA), the fluorescence was measured at excitation/emission wavelengths of 460/510 nm (pyranine) or 586/605 nm (SR101).
OATP-mediated transport was obtained by subtracting the activity of the mock control cells from the activity of the OATP-expressing cells. The transport activity (%) of the OATPs was calculated by comparing the fluorescence signal obtained in the absence of the compounds tested (set to 100%).

CYP1A2 = biological target: T3, CYP1A2 (Homo sapiens, UniProt P05177); conditions: each 20 μM; 0.2 vol % DMSO
T3 sequence (P05177 1-516): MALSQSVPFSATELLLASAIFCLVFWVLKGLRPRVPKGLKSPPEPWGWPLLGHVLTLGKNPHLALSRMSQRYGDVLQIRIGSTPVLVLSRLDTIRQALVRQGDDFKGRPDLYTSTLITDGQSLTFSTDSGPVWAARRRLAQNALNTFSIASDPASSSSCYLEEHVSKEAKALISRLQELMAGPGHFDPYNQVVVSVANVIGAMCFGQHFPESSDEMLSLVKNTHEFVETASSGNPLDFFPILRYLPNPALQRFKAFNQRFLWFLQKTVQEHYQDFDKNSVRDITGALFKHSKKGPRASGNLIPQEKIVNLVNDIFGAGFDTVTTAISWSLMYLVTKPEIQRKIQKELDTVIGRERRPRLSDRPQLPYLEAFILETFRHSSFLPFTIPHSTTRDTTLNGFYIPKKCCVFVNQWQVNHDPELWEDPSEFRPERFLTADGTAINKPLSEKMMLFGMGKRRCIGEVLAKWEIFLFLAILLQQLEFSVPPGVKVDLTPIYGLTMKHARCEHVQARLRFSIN
Procedure: We applied 10 mM stock solutions of mycotoxins (dissolved in DMSO), and the samples (including controls and positive controls) contained uniformly 0.2 vol % DMSO.

C[C@H]1CCCC(=O)CCC/C=C/c2cc(O[C@@H]3O[C@H](C(=O)O)[C@@H](O)[C@H](O)[C@H]3O)cc(O)c2C(=O)O1 [Z14GA, Zearalenone-14-glucuronide]
inhibition of CYP2C9 (decrease in metabolite formation) (CYP2C9; each 20 μM): no effects
pIC50 (OATP1B1; pyranine 10 μM, 15 min, A431 cells, read-out: IC50 for OATP1B1): < 4.70
inhibition of CYP1A2 activity (CYP1A2): no effects

C[C@H]1CCCC(=O)CCC/C=C/c2cc(OS(=O)(=O)O)cc(O)c2C(=O)O1 [Z14S, zearalenone-14-sulfate]
inhibition at 120 min, 20 μM (CYP2C9; human, pH 7.5, each 20 μM, read-out: inhibition of CYP2C9 (decrease in metabolite formation)): ~45%
pIC50 (OATP1B1): 6.57
decrease in OATP1B1 transport activity (OATP1B1; 20 μM, pyranine substrate, A431 cells): 80–100%
stronger inhibition on OATP1B1 compared to ZEN (OATP1B1; ratio of IC50 values vs ZEN): more than 30 fold
inhibition of CYP1A2 activity (CYP1A2): did not influence
